Key:
P815 tumor cells [1] = test: Cancer vaccine: comparison of adjuvants with P1A peptide in P815-grafted DBA/2 mice; assay type: in vivo; conditions: groups of 5 mice; P1A CTL i.v. Day 8; P1A peptide 50 μg + adjuvant s.c. Day 9 and Day 16
From the text: In accordance with the protocol shown in FIG. 1, the effects of adjuvants in cancer vaccines using a cancer-antigen derived peptide were compared.
As cancer model mice, DBA/2 mice, to which P815 cells (DBA/2mouse-derived mouse mastocytoma) were grafted, were put in use.
As a cancer-antigen derived peptide, a peptide (hereinafter referred to as “PIA peptide”) consisting of a partial sequence of PIA protein was used, which is a tumor antigen of P815 tumor and known to be restrictively presented by an MHC H-2Ld. The amino acid sequence of P1A peptide are represented by LPYLGWLVF (SEQ. ID No: 1).
As P1A CTL, a T cell expressing a T cell receptor and recognizing P1A peptide was used. […] Based on the positive ratio, the number of P1A-CTL cells was determined and administered.
As the adjuvants, the following substances were used. • Whole pertussis bacterial cell (PT) (BioFarma, Bandung, Indonesia) • Poly I:C (TLR3 agonist) (Invivogen, SanDiego, USA) • CpG (TLR9 agonist) (Invivogen, SanDiego, USA) • IFA (incomplete Freund's adjuvant) (Seppic, Paris, France) • LAG-3 (Adipogen, SanDiego, USA) Method
P815 tumor cells were subcutaneously inoculated to DBA/2 mice in an amount of 5×10^5 cells per mouse. The day of inoculation was specified as Day 0. On Day 8, P1A CTL (2.5×10^5 cells per mouse) were intravenously injected. […]

P815 tumor cells [2] = test: Suppression effect of tumor growth by immunoadjuvant combination (P815 model); assay type: in vivo, DBA/2 mice
From the text: The following substances were used as adjuvants.
Poly I:C (TLR3 agonist) (Invivogen, SanDiego, USA)
RIBOXXOL (TLR3 agonist) (Riboxx, Radebeul, Germany)
MPL (TLR4 agonist) (Invivogen, SanDiego, USA)
Imiquimod (TLR7/8 agonist) (Invivogen, SanDiego, USA)
CpG (TLR9 agonist) (Invivogen, SanDiego, USA)
LAG-3 (Adipogen, SanDiego, USA)
P815 tumor cells were subcutaneously inoculated to DBA/2 mice in an amount of 5×10^5 cells per mouse to prepare cancer model mice. The day of inoculation was specified as Day 0. On Day 7, PIA CTL (2.5×10^5 cells per mouse) were intravenously injected. Day 8 and Day 15, an admixture of PIA peptide (50 μg per mouse) and an adjuvant in PBS was subcutaneously injected. Mice were divided into 9 groups each consisting of 4 or 5 mice and the following adjuvants were used respectively.
Group 1: PIA peptide alone (control)
(§1) Group 2: Poly IC (50 μg/mouse)
Group 3: Poly IC (50 μg/mouse)+LAG-3 (1 μg/mouse)
Group 4: No PIA peptide, Poly IC (50 μg/mouse)+LAG-3 (1 μg/mouse) alone
Group 5: RIBOXXOL (100 μg/mouse)
Group 6: RIBOXXOL (100 μg/mouse)+LAG-3 (1 μg/mouse)
Group 7: MPL (10 μg/mouse)+LAG-3 (1 μg/mouse)
Group 8: Imiquimod (50 μg/mouse)+LAG-3 (1 μg/mouse)
Group 9: CpG (10 μg/mouse)+LAG-3 (1 μg/mouse)

B16-F10 melanoma cells = test: Tumor growth inhibitory effect by combination of immuno-adjuvants, B16-F10 melanoma inoculation model mice; assay type: in vivo, C57BL/6 mice
Protocol: To C57BL/6 mice, B16-F10 melanoma cells (1×10^5 cells per mouse) were subcutaneously inoculated to prepare cancer model mice.
The day of inoculation was specified as Day 0. On Day 5 and Day 12, twice in total, an admixture of gp100 peptide (50 μg per mouse) and an adjuvant in PBS was subcutaneously injected. The following adjuvants were used in respective mice groups.
Group 1: IFA (50 μL/mouse)
as §1
Group 3: LAG-3 (1 μg/mouse)
Group 4: LAG-3 (1 μg/mouse)+Poly IC (50 μg/mouse)

Substance | number of mice survived until Day 70 without increasing tumor size (P815 tumor cells [1]) | mice survived (out of 5) (P815 tumor cells [2]; with PIA peptide 50 μg s.c. Day 8 and Day 15, time point apparently Day 40) | effect of extending survival time (in words) (B16-F10 melanoma cells; Poly IC and LAG-3 alone compared to IFA group, combination compared to IFA, Poly IC and LAG-3 groups) | Day on which five mice all died (B16-F10 melanoma cells; gp100 peptide 50 μg + adjuvant s.c. Day 5 and Day 12) | Day up to which all mice died (P815 tumor cells [2]; 5 out of 5 mice, PIA peptide without adjuvant)
Polyinosinic:polycytidylic acid [Poly IC] | 1 | Four | a significant effect of extending survival time was not observed | 35 days | 
LPYLGWLVF (listed as Mus musculus) [PIA peptide alone] |  |  |  |  | ≤ 40 days

Reference: patent publication US11491204B2, “Composition comprising poly I:C and LAG-3-IGG fusion protein” (CYTLIMIC INC., priority 2015, dated 2022)
